Measured values taken from US20260069656A1, “Nutritive Polypeptides and Formulations Thereof, and Methods of Production and Use Thereof” (Axcella Health Inc., priority 2013, published 2026).

Tested on: insulin
Experiment: Plasma insulin after acute oral dosing in rats, Rat Insulin ELISA
Assay type: in vivo
Conditions: Rat Insulin ELISA kit; oral gavage
Protocol: Animals were treated and acutely dosed with various test articles as part of pharmacokinetic rodent experiments according to methods described herein. Unless otherwise stated all dosing was at 2.85 g/kg body weight. All treatment groups except for SEQID-00240 which had n=5 rats, and SEQID-00587 which had n=3, contained n=4 rats.
An Ultra-Sensitive Rat Insulin ELISA Kit was obtained from Crystal Chem, Inc. (Catalog number 90060, Downers Grove, IL). Plates were washed using a BioTek ELx50 microplate strip washer (BioTek, Winooski, VT). Absorbance was read on a Synergy Mx monochromator-based microplate reader (BioTek, Winooski, VT). Data was analyzed using Microsoft Excel version 14.0.7128.5000 (Microsoft Corporation, Redmond, WA) and GraphPad Prism version 6.03 for Windows (GraphPad Software, La Jolla, CA).
The ELISA kit was pre-warmed to room temperature for 30 minutes prior to beginning the assay set up. The standard curve dilutions were prepared in accordance with the manufacturer's instructions for running the assay in Wide Range format. […]
Anti-Insulin Enzyme Conjugate Working Solution was prepared by combining 2 volumes Anti-Insulin Enzyme Conjugate Stock with 1 volume Enzyme Conjugate Diluent, and mixing by pipetting up and down and gently vortexing. […] The absorbance was read on the Synergy Mx plate reader at 450 nm and 630 nm. […]

SEQID-00240: nutritive polypeptide naturally produced in Cow, recombinantly expressed in E. coli (DLEGSLEQEKKLRMDLERAKRKLEGDLKLAQESTMDIENDKQQLDEKLKK; listed as Bos taurus)
plasma insulin concentration vs time 0: statistically significant increase in plasma insulin at 15 and 30 minutes post gavage compared to time 0
